Experimental data as given in patent publication US11364246B2, “Compounds” (TMEM16A Limited, priority 2019, dated 2022).

What follows are molecules tested against human TMEM16A (Homo sapiens, UniProt Q5XXA6) (assay: Automated whole-cell patch clamp (Qpatch) assay to detect TMEM16A activity in recombinant cells). Conditions: 3.33 μM test compound; % increase of baseline TMEM16A current; FRT cells stably expressing human TMEM16A (TMEM16Aabc variant); intracellular calcium at EC20.
Format: cell-based
Protocol: Automated Whole-Cell Patch Clamp Assay to Detect TMEM16A Activity in Recombinant Cells
Fisher rat thyroid (FRT) cells stably expressing human TMEM16A (TMEM16Aabc variant; Dr Luis Galietta, Insituto Giannina, Italy) were cultured in T-75 flasks in Hams F-12 media with Coon's modification (Sigma) supplemented with 10% (v/v) foetal bovine serum, penicillin-streptomycin (10,000 U/mL/10000 pg/mL), G-418 (750 pg/mL), L-glutamine (2 mM) and sodium bicarbonate solution (7.5% v/v). At −90% confluence cells were harvested for experiments by detachment with a 2:1 (v/v) mixture of Detachin (BMS Biotechnology) and 0.25% (w/v) trypsin-EDTA. Cells were diluted to a density of 3.5-4.5×10^6 cells/mL with media consisting of CHO-S-SFM (Sigma), 25 mM HEPES (Sigma) and Soy bean trypsin inhibitor (Sigma).
FRT-TMEM16A cells were whole-cell patch clamped using an automated planar patch clamp system (Qpatch, Sophion). Briefly, once high resistance (GOhm) seals were established between the cells and the planar recording array the patch was ruptured using suction pulses to establish the whole-cell recording configuration of the patch clamp technique. The assay employed the following solutions (all reagents Sigma): Intracellular solution (mM): N-methyl-D-glucamine 130, CaCh 18.2, MgCh 1. HEPES 10, EGTA 10, BAPTA 20, Mg-ATP 2, pH 7.25, 325 mOsm with sucrose.
Extracellular solution (mM): N-methyl-D-glucamine 130, CaCl2 2, MgCh 1, HEPES 10, pH 7.3, 320 mOsm with sucrose.
The intracellular solution buffers intracellular calcium at levels required to give −20% activation of the maximal TMEM16A mediated current (EC20 for calcium ions). Cells were voltage clamped at a holding potential of −70 mV and a combined voltage step (to +70 mV)/ramp (−90 my to +90 mV) was applied at 0.05 Hz. After a period of current stabilisation test compounds, solubilised in 100% (v/v) DMSO and subsequently diluted into extracellular solution, were applied to generate a cumulative concentration response curve. Each concentration of test compound was incubated for 5 minutes before addition of the next concentration. After the final concentration was tested a supramaximal concentration of either a known active positive modulator or the TMEM16A inhibitor. CaCCinhAOI (Del La Fuente et al, 2008) was added to define the upper and lower limits of the assay.
Compound activity was quantified by measuring the increase in current upon compound addition and expressing this as a percentage increase of baseline TMEM16A current level. […]
Peak TMEM16A current at +70 mV was plotted as a function of time over the assay period. Baseline current (IBL) was measured after a period of stabilisation. The increase in current for each compound addition was determined by taking the peak current during the incubation period and subtracting the current from the previous recording period and then expressing this as a percentage of the baseline current. […]
For each additional concentration tested the increase in current was determined by subtracting the current from the previous incubation period and normalising the baseline value—for test concentration 2 in FIG. 1 this is: (I[#2]−I[# ? /IBL)×100
The values for each test concentration were plotted as a cumulative function of concentration eg. for test concentration two this would be the sum of the peak changes measured during concentration one plus concentration two.

SMILES	% Potentiation @ 3.33 μM Avg [%]
CC(C)(C)NC(=O)c1cc(NC(=O)C2(c3cccc(Cl)c3)CC2)ccn1 [Example 5.31, N-tert-butyl-4-[[1-(3-chlorophenyl)cyclopropanecarbonyl]amino]pyridine-2-carboxamide]	145
O=C(Cc1cc(Cl)ccc1O)Nc1ccnc(C(=O)NC23CCC(F)(C2)C3)c1 [Example 44, 4-[[2-(5-Chloro-2-hydroxy-phenyl)acetyl]amino]-N-(4-fluoro-1-bicyclo[2.1.1]hexanyl)pyridine-2-carboxamide]	1
CC(C)(C)NC(=O)c1cc(NC(=O)[C@@H]2CCc3ccccc32)ccn1 (single isomer, unassigned) [Example 21a, N-tert-Butyl-4-[[(1R)-indane-1-carbonyl]amino]pyridine-2-carboxamide or N-tert-Butyl-4-[[(1S)-indane-1-carbonyl]amino]pyridine-2-carboxamide]	99
O=C(Cc1cc(Cl)ccc1O)Nc1ccnc(C(=O)N[C@@]2(CO)CCOC2)c1 (single isomer, unassigned) [Example 35b, 4-[[2-(5-Chloro-2-hydroxy-phenyl)acetyl]amino]-N-[(3R)-3-(hydroxymethyl)tetrahydrofuran-3-yl]pyridine-2-carboxamide or 4-[[2-(5-chloro-2-hydroxy-phenyl)acetyl]amino]-N-[(3S)-3-(hydroxymethyl)tetrahydrofuran-3-yl]pyridine-2-carboxamide]	190
C#CC(C)(C)NC(=O)c1cc(NC(=O)Cc2cccc3cc[nH]c23)ccn1 [Example 79.3, N-(1,1-Dimethylprop-2-ynyl)-4-[[2-(1H-indol-7-yl)acetyl]amino]pyridine-2-carboxamide]	64
